Reference: patent US20240116985A1, “STAPLED PEPTIDES AND METHODS THEREOF” (priority 2020, published 2024)

What was measured:
[1] = biological target: T1, beta-catenin/TCF4 engagement (Homo sapiens, UniProt P35222); experiment: Nano-BRET target engagement assay (B-cat-Halo & TCF4-Luc in HEK293 cells); assay type: cell-based; conditions: absolute IC50; read-out: NanoBRET Abs IC50
T1 construct: expressed in transfected cells; host or cells: HEK293
T1 sequence (P35222 1-781): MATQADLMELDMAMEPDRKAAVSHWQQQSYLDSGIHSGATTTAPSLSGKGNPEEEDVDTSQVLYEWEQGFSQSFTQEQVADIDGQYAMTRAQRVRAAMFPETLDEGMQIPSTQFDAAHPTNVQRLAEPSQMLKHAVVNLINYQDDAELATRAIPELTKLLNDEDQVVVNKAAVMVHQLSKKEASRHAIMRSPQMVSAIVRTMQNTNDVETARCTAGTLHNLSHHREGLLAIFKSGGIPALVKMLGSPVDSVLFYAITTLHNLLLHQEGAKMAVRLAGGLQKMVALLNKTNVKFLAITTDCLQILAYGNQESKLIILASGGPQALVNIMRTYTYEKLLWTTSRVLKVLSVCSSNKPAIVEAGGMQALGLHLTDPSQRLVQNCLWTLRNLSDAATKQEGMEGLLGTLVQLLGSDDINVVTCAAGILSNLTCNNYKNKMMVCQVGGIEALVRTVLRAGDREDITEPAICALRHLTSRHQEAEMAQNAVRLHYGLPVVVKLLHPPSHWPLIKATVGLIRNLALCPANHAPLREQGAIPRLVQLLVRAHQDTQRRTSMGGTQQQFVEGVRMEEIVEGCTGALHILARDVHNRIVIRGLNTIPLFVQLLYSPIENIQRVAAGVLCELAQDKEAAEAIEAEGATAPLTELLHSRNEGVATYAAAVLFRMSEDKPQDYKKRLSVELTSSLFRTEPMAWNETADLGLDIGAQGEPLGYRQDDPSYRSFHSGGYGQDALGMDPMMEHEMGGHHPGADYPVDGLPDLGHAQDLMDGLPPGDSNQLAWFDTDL

[2] = biological target: T2, full-length beta-Catenin (Uniprot ID P35222) (Homo sapiens, UniProt P35222); experiment: Fluorescence polarization IC50 (beta-catenin / 5FAM-TCF4 10-53 competition); assay type: binding; conditions: fluorescence polarization; read-out: beta-Catenin FP IC50
T2 construct: 10 nM full-length beta-Catenin (Uniprot ID P35222)
T2 sequence (P35222 1-781): T1 sequence (P35222 1-781)

Row | IC50 [1] [nM] | IC50 [2] [nM] | Structure (SMILES)
1 | 10000 | 15 | CC(=O)N1CCC[C@]12CC=CCCCC1(CCCC=CCCCOC(=O)N3CC[C@@](C(=O)N[C@@H](Cc4ccccc4C)C(=O)N[C@@H](Cc4csc5ccccc45)C(=O)N[C@@H](CCC(N)=O)C(N)=O)(C3)NC(=O)[C@H](CC(C)C)NC(=O)[C@H](Cc3ccccc3)NC(=O)[C@H](C)NC(=O)[C@H](C)NC(=O)[C@H](CN(CC(=O)O)CC(F)(F)F)NC(=O)[C@H](CC(=O)O)NC1=O)NC(=O)[C@H](CC(C)(C)C)NC(=O)[C@H](CC(=O)O)NC2=O (stereo partly drawn) [I-1725, Ac-PL3-Asp-Npg-B5-Asp-TfeGA-Ala-Ala-Phe-Leu-PyrS2-2MeF-BztA-Gln-NH2]
2 | > 20000 | 274 | CC(=O)N1CCC[C@]12CCCCCCC1(CCCCCCCCOC(=O)N3CC[C@@](C(=O)N[C@@H](Cc4ccccc4C)C(=O)N[C@@H](Cc4csc5ccccc45)C(=O)N[C@@H](CCC(N)=O)C(N)=O)(C3)NC(=O)[C@H](CC(C)C)NC(=O)[C@H](Cc3ccccc3)NC(=O)[C@H](C)NC(=O)[C@H](C)NC(=O)[C@H](CN(CC(=O)O)CC(F)(F)F)NC(=O)[C@H](CC(=O)O)NC1=O)NC(=O)[C@H](CC(C)(C)C)NC(=O)[C@H](CC(=O)O)NC2=O (stereo partly drawn) [I-1726, Ac-PL3-Asp-Npg-B5-Asp-TfeGA-Ala-Ala-Phe-Leu-PyrS2-2MeF-BztA-Gln-NH2]
3 | 29500 | 25 | CC(=O)N1CCC[C@]12CC=CCCCC1(CCCC=CCCCOC(=O)N3CC[C@@](C(=O)N[C@@H](Cc4ccsc4)C(=O)N[C@@H](Cc4csc5ccccc45)C(=O)N[C@@H](CCC(N)=O)C(N)=O)(C3)NC(=O)[C@H](CC(C)C)NC(=O)[C@H](Cc3ccccc3)NC(=O)[C@H](C)NC(=O)[C@H](C)NC(=O)[C@H](CNCC(=O)O)NC(=O)[C@H](CC(=O)O)NC1=O)NC(=O)[C@H](CC(C)(C)C)NC(=O)[C@H](CC(=O)O)NC2=O (stereo partly drawn) [I-1731, Ac-PL3-Asp-Npg-B5-Asp-GA-Ala-Ala-Phe-Leu-PyrS2-3Thi-BztA-Gln-NH2]
4 | > 20000 | 11 | CC(=O)N1CCC[C@]12CC=CCCCC1(CCCC=CCCCOC(=O)N3CC[C@@](C(=O)N[C@@H](Cc4ccsc4)C(=O)N[C@@H](Cc4csc5ccccc45)C(=O)N[C@@H](CCC(N)=O)C(N)=O)(C3)NC(=O)[C@H](CC(N)=O)NC(=O)[C@H](Cc3ccccc3)NC(=O)[C@H](C)NC(=O)[C@H](C)NC(=O)[C@H](CNCC(=O)O)NC(=O)[C@H](CC(=O)O)NC1=O)NC(=O)[C@H](CC(C)(C)C)NC(=O)[C@H](CC(=O)O)NC2=O (stereo partly drawn) [I-1732, Ac-PL3-Asp-Npg-B5-Asp-GA-Ala-Ala-Phe-Asn-PyrS2-3Thi-BztA-Gln-NH2]
5 | > 20000 | 15 | CC(=O)N1CCC[C@]12CC=CCCCC1(CCCC=CCCCOC(=O)N3CC[C@@](C(=O)N[C@@H](Cc4ccsc4)C(=O)N[C@@H](Cc4csc5ccccc45)C(=O)N[C@@H](CCC(N)=O)C(N)=O)(C3)NC(=O)[C@H](CC(N)=O)NC(=O)[C@H](Cc3ccccc3)NC(=O)[C@H](C)NC(=O)[C@H](C)NC(=O)[C@H](CNCC(=O)O)NC(=O)[C@H](CC(=O)O)NC1=O)NC(=O)[C@H](CC(C)(C)C)NC(=O)[C@H](CC(=O)O)NC2=O (stereo partly drawn) [I-1733, Ac-PL3-Asp-Npg-B5-Asp-GA-Ala-Ala-Phe-Asn-PyrS2-3Thi-BztA-Gln-NH2]
6 | > 20000 | 187 | CC(=O)N1CCC[C@]12CC=CCCCC1(CCCC=CCCCOC(=O)N3CC[C@@](C(=O)N[C@@H](Cc4ccsc4)C(=O)N[C@@H](Cc4csc5ccccc45)C(=O)N[C@@H](CC(C)C)C(N)=O)(C3)NC(=O)[C@H](CC(C)C)NC(=O)[C@H](Cc3ccccc3)NC(=O)[C@H](C)NC(=O)[C@H](C)NC(=O)[C@H](CN(CC(=O)O)CC(F)(F)F)NC(=O)[C@H](CC(=O)O)NC1=O)NC(=O)[C@H](CC(C)(C)C)NC(=O)[C@H](CC(=O)O)NC2=O (stereo partly drawn) [I-1747, Ac-PL3-Asp-Npg-B5-Asp-TfeGA-Ala-Ala-Phe-Leu-PyrS2-3Thi-BztA-Leu-NH2]
7 | 20200 | 141 | CC(=O)N1CCC[C@]12CC=CCCCC1(CCCC=CCCCOC(=O)N3CC[C@@](C(=O)N[C@@H](Cc4ccsc4)C(=O)N[C@@H](Cc4csc5ccccc45)C(=O)N[C@@H](CC(C)C)C(N)=O)(C3)NC(=O)[C@H](CC(C)C)NC(=O)[C@H](Cc3ccccc3)NC(=O)[C@H](C)NC(=O)[C@H](C)NC(=O)[C@H](CN(CC(=O)O)CC(F)(F)F)NC(=O)[C@H](CC(=O)O)NC1=O)NC(=O)[C@H](CC(C)(C)C)NC(=O)[C@H](CC(=O)O)NC2=O (stereo partly drawn) [I-1748, Ac-PL3-Asp-Npg-B5-Asp-TfeGA-Ala-Ala-Phe-Leu-PyrS2-3Thi-BztA-Leu-NH2]
8 | 23700 | 104 | CC(=O)N1CCC[C@]12CC=CCCCC1(CCCC=CCCCOC(=O)N3CC[C@@](C(=O)N[C@@H](Cc4ccsc4)C(=O)N[C@@H](Cc4csc5ccccc45)C(=O)N[C@@H](Cc4ccccc4)C(N)=O)(C3)NC(=O)[C@H](CC(C)C)NC(=O)[C@H](Cc3ccccc3)NC(=O)[C@H](C)NC(=O)[C@H](C)NC(=O)[C@H](CN(CC(=O)O)CC(F)(F)F)NC(=O)[C@H](CC(=O)O)NC1=O)NC(=O)[C@H](CC(C)(C)C)NC(=O)[C@H](CC(=O)O)NC2=O (stereo partly drawn) [I-1750, Ac-PL3-Asp-Npg-B5-Asp-TfeGA-Ala-Ala-Phe-Leu-PyrS2-3Thi-BztA-Phe-NH2]
9 | > 20000 | 57 | CC(=O)N1CCC[C@]12CC=CCCCC1(CCCC=CCCCOC(=O)N3CC[C@@](C(=O)N[C@@H](Cc4ccsc4)C(=O)N[C@@H](Cc4csc5ccccc45)C(=O)N[C@@H](CC(C)C)C(N)=O)(C3)NC(=O)[C@H](CC(C)C)NC(=O)[C@H](Cc3ccccc3)NC(=O)[C@H](C)NC(=O)[C@H](CCCCNC(C)C)NC(=O)[C@H](CN(CC(=O)O)CC(F)(F)F)NC(=O)[C@H](CC(=O)O)NC1=O)NC(=O)[C@H](CC(C)(C)C)NC(=O)[C@H](CC(=O)O)NC2=O (stereo partly drawn) [I-1759, Ac-PL3-Asp-Npg-B5-Asp-TfeGA-iPrLys-Ala-Phe-Leu-PyrS2-3Thi-BztA-Leu-NH2]
10 | > 20000 | 32 | CC(=O)N1CCC[C@]12CC=CCCCC1(CCCC=CCCCOC(=O)N3CC[C@@](C(=O)N[C@@H](Cc4ccsc4)C(=O)N[C@@H](Cc4csc5ccccc45)C(=O)N[C@@H](CC(C)C)C(N)=O)(C3)NC(=O)[C@H]([C@@H](C)O)NC(=O)[C@H](Cc3ccccc3)NC(=O)[C@H](C)NC(=O)[C@H](CCCCNC(C)C)NC(=O)[C@H](CN(CC(=O)O)CC(F)(F)F)NC(=O)[C@H](CC(=O)O)NC1=O)NC(=O)[C@H](CC(C)(C)C)NC(=O)[C@H](CC(=O)O)NC2=O (stereo partly drawn) [I-1760, Ac-PL3-Asp-Npg-B5-Asp-TfeGA-iPrLys-Ala-Phe-Thr-PyrS2-3Thi-BztA-Leu-NH2]
11 | > 20000 | 39 | CC(=O)N1CCC[C@]12CC=CCCCC1(CCCC=CCCCOC(=O)N3CC[C@@](C(=O)N[C@@H](Cc4ccsc4)C(=O)N[C@@H](Cc4csc5ccccc45)C(=O)N[C@@H](Cc4ccccc4)C(N)=O)(C3)NC(=O)[C@H](CC(C)C)NC(=O)[C@H](Cc3ccccc3)NC(=O)[C@H](C)NC(=O)[C@H](CCCCNC(C)C)NC(=O)[C@H](CN(CC(=O)O)CC(F)(F)F)NC(=O)[C@H](CC(=O)O)NC1=O)NC(=O)[C@H](CC(C)(C)C)NC(=O)[C@H](CC(=O)O)NC2=O (stereo partly drawn) [I-1761, Ac-PL3-Asp-Npg-B5-Asp-TfeGA-iPrLys-Ala-Phe-Leu-PyrS2-3Thi-BztA-Phe-NH2]
12 | > 20000 | 13 | CC(=O)N1CCC[C@]12CC=CCCCC1(CCCC=CCCCOC(=O)N3CC[C@@](C(=O)N[C@@H](Cc4ccsc4)C(=O)N[C@@H](Cc4csc5ccccc45)C(=O)N[C@@H](Cc4ccccc4)C(N)=O)(C3)NC(=O)[C@H]([C@@H](C)O)NC(=O)[C@H](Cc3ccccc3)NC(=O)[C@H](C)NC(=O)[C@H](CCCCNC(C)C)NC(=O)[C@H](CN(CC(=O)O)CC(F)(F)F)NC(=O)[C@H](CC(=O)O)NC1=O)NC(=O)[C@H](CC(C)(C)C)NC(=O)[C@H](CC(=O)O)NC2=O (stereo partly drawn) [I-1762, Ac-PL3-Asp-Npg-B5-Asp-TfeGA-iPrLys-Ala-Phe-Thr-PyrS2-3Thi-BztA-Phe-NH2]
13 | > 20000 | 52 | CC(=O)N1CCC[C@]12CC=CCCCC1(CCCC=CCCCOC(=O)N3CC[C@@](C(=O)N[C@@H](Cc4ccsc4)C(=O)N[C@@H](Cc4csc5ccccc45)C(=O)N[C@H](C(N)=O)C(C)C)(C3)NC(=O)[C@H](CC(C)C)NC(=O)[C@H](Cc3ccccc3)NC(=O)[C@H](C)NC(=O)[C@H](CCCCNC(C)C)NC(=O)[C@H](CN(CC(=O)O)CC(F)(F)F)NC(=O)[C@H](CC(=O)O)NC1=O)NC(=O)[C@H](CC(C)(C)C)NC(=O)[C@H](CC(=O)O)NC2=O (stereo partly drawn) [I-1763, Ac-PL3-Asp-Npg-B5-Asp-TfeGA-iPrLys-Ala-Phe-Leu-PyrS2-3Thi-BztA-Val-NH2]
